Laboratory results as given in PMC6675120, “Potent and selective inhibitors for M32 metallocarboxypeptidases identified from high-throughput screening of anti-kinetoplastid chemical boxes” (PLoS Neglected Tropical Diseases, 2019).
Like-named read-outs stand apart in the source and are kept apart here.

Target: TcMCP-1 (Trypanosoma cruzi, UniProt Q6ZXC0)
Assay: Continuous fluorogenic (FRET) TcMCP-1 assay with Abz-LKFK(Dnp)-OH, primary and secondary screening
Assay type: biochemical
Design: inhibition: dose or concentration left out as unconfirmed
Procedure: TcMCP-1 (MEROPS ID: M32.003) and TbMCP-1 were expressed as GST fusion proteins in E. coli BL21 (DE3) Codon Plus and purified as previously described.
TbMCP-1 and TcMCP-1 activities were assayed fluorometrically with Abz-RFFK(Dnp)-OH and Abz-LKFK(Dnp)-OH substrates, respectively, in 100 mM MOPS pH 7,2 containing 0,01% Triton X-100. Assays were performed in solid black 384-well plates (final reaction volume ~80 μL) and the hydrolysis of the K(Dnp)-OH group was monitored continuously at 30 °C with a Beckman Coulter DTX 880 Multimode Reader (Radnor, Pennsylvania, USA) using standard 320 nm excitation and 420 nm emission filter set.
In all cases, EDTA (final concentration 31,25 mM) was used as positive inhibition control.
Then, 40 μL of 100 mM MOPS, 0,01% Triton X-100 pH 7,2 containing TbMCP-1 (2,50 nM) or TcMCP-1 (0,34 nM) were added to each well, plates were homogenized (30 seg, orbital, medium intensity) and each well subjected to a single autofluorescence read (ex/em = 320/420 nm). Plates were incubated in darkness for 15 min at 30 °C and then 40 μL of Abz-RFFK(Dnp)-OH (4 μM) or Abz-LKFK(Dnp)-OH (0,8 μM) in assay buffer were added to each well to start the reaction. After homogenization (30 seg, orbital, medium intensity), the fluorescence of the Abz group (ortho-aminobenzoic acid) (ex/em = 320/420 nm) was acquired kinetically for each well (8 read cycles, one cycle every 300 seconds). Considering our previous experiences, the auto-fluorescent cut-off was arbitrarily set at 2x10^5 RFU to discard highly interfering compounds. All compounds were assayed in singlet (without replicates) due to the limited availability of stocks.
Raw screening measurements were used to determine the slope (dF/dt) of progression curves by linear regression for control and non-interfering compound wells. In the case of control-dependent hit selection criteria, percent inhibition percentage (%Inh) was calculated for each compound according to the following equation: Inh=100∙[1−(dF/dt^WELL−μ^C−)/(μ^C+−μ^C−)] (1) where dF/dt^WELL represents the slope of each compound well and μ^C+ and μ^C− the average of MCP (no-inhibition) and substrate (no-enzyme) controls, respectively.
Compounds selected from primary screening were re-tested in a dose-response manner (final concentration ranging from […] to 62,5 μM) using identical assay conditions. To avoid any positional and/or association bias, we randomly defined the row position for each compound. One μL of compounds stock (10 mM in DMSO) and EDTA (31,25 mM) were added to the first well of column 1, followed by addition of 40 μL of 100 mM MOPS, 0,01% Triton X-100 pH 7,2 buffer. After addition of 20 μL of the same buffer to subsequent wells of the plate, 22 serial 2-fold dilutions were made horizontally. The last two positions of every row were used, alternatively, for C^+ and C^− controls to reduce any positional and/or association bias. Then, 20 μL of activity buffer containing TbMCP-1 or TcMCP-1 were added to each well, except for those corresponding to C^−; completed with 20 μL of activity buffer. After homogenization, 15 minutes of incubation at 30°C and autofluorescence measurement, the substrate (in activity buffer) was added to the previous mix. Data collection and processing were performed exactly as described above. Percentage of M32 MCPs residual activity was calculated for each condition according to the following equation: %Res.Act^MCP=100∙[(dF/dt^WELL−μ^C−)/(μ^C+−μ^C−)] (2) where dF/dt^WELL represents the slope of each compound well and μ^C+ and μ^C− the average of MCP (no-inhibition) and substrate (no-enzyme) controls, respectively.

TcMCP-1, sequence (Q6ZXC0 entry or part of it): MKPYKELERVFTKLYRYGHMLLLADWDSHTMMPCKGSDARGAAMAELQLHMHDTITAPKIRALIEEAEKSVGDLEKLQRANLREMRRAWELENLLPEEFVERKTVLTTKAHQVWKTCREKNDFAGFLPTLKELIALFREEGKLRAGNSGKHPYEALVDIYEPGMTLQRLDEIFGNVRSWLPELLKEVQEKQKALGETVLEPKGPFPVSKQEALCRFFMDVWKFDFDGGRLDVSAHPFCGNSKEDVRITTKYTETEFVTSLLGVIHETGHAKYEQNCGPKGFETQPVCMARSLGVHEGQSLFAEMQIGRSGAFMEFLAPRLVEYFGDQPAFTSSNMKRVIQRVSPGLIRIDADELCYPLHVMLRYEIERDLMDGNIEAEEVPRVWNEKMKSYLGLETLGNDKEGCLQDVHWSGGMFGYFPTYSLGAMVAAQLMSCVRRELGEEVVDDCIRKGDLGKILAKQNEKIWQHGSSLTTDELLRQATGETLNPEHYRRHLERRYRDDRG

With `N#Cc1ccc(S(=O)(=O)N2CCN(Cc3cccc(-c4ccncc4)c3)CC2)cc1` [TCMDC-143620] the IC50 was 0.694 µM, the “TcMCP-1 Hill Slope” value (four-parameter Hill fit of dose-response curve) was -1,06 and the inhibition (read-out: TcMCP-1 Secondary screening Inhibition (%)) was 96.7%. For the same molecule, the “TcMCP-1 2º/1º ratio” value (secondary (31,5 µM) / primary (25 µM) inhibition) was 1,18, the IC50 (secondary screening, two-fold dilutions 7,5 pM to 62,5 μM, KM/[S] ~ 1, no replicates) was at most 10 µM and the inhibition at 25 µM (single inhibitor concentration 25 µM) was 82.1%.
